From ChEMBL document CHEMBL4819069, “Discovery of multifunctional anti-Alzheimer's agents with a unique mechanism of action including inhibition of the enzyme butyrylcholinesterase and γ-aminobutyric acid transporters” (Eur J Med Chem, 2021)
pIC50: −log10 of the molar value. Activity calls are given as the source filed them. No cut-off for these calls is given here.

Tests used:
[1] = molecular target: T1, Sodium- and chloride-dependent GABA transporter 3 (Homo sapiens, UniProt P48066); test: Inhibition of human GAT3 expressed in COS-7 cells assessed as reduction in [2H6]GABA uptake preincubated for 25 mins followed by [2H6]GABA addition and measured after 6 mins by LC-MS/MS analysis; assay type: cell-based
T1 sequence (P48066 whole entry): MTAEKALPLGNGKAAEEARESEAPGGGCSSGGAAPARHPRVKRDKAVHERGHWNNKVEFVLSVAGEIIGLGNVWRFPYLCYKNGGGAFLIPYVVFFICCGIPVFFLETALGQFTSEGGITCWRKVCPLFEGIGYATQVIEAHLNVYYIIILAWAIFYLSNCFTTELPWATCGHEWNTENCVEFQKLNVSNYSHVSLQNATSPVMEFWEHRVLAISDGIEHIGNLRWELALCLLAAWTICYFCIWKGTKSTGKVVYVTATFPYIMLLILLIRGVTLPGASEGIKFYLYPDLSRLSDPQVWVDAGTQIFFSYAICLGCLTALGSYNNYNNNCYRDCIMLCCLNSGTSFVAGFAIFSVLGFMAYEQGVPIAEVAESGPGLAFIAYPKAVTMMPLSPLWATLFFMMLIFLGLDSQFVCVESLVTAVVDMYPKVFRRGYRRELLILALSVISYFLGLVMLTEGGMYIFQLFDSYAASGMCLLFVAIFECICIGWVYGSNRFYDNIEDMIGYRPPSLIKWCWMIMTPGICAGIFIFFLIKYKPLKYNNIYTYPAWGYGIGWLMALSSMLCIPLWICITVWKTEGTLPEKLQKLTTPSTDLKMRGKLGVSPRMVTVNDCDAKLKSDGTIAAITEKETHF

[2] = molecular target: T2, Sodium- and chloride-dependent GABA transporter 1 (Mus musculus, UniProt P31648); test: Inhibition of NO711 binding to mouse GAT1 expressed in HEK cell membranes incubated for 40 mins in presence of NO711 by LC-ESI-MS/MS analysis; set-up: species or system Membrane
[3] = Neurotoxicity against mouse HT22 cells assessed as cell viability at 30 uM incubated for 24 hrs by MTT assay; assay type: cell-based, HT-22; details: ht-22, 24 h, 30 µM
[4] = molecular target: T2, Sodium- and chloride-dependent GABA transporter 1; test: Inhibition of mouse GAT1 expressed in HEK293 cell line assessed as reduction in [3H]GABA uptake incubated for 10 mins; assay type: cell-based
Cholinesterase [5] = molecular target: Cholinesterase (Equus caballus, UniProt P81908)
Description: Inhibition of equine serum BuChE using butyrylthiocholine as substrate preincubated for 5 mins followed by substrate addition and measured after 5 mins by Ellman's method

Cholinesterase [6] = molecular target: Cholinesterase (Homo sapiens, UniProt P06276)
Description: Inhibition of human BuchE using butyrylthiocholine as substrate preincubated for 5 mins followed by substrate addition and measured after 5 mins by Ellman's method

[7] = Neurotoxicity against mouse HT22 cells assessed as cell viability at 10 uM incubated for 24 hrs by MTT assay; assay type: cell-based, HT-22; details: ht-22, 24 h, 10 µM
[8] = Hepatotoxicity in human HepG2 cells at 50 to 100 uM incubated for 72 hrs by MTS assay; assay type: cell-based; details: hepg2, 72 h, dose 50-100 µM
[9] = molecular target: Cholinesterase (Equus caballus) (UniProt P81908); test: Noncompetitive inhibition of equine serum BuChE assessed as decrease in Vmax with constant Km using varying concentrations of BTC as substrate by Lineweaver-burk and Cornish-Bowden plot analysis
[10] = Hepatotoxicity in human HepG2 cells at 1 uM incubated for 72 hrs by MTS assay; assay type: cell-based; details: hepg2, 72 h
[11] = molecular target: Acetylcholinesterase (Electrophorus electricus) (UniProt O42275); test: Inhibition of electric eel AChE at 10 uM using acetylthiocholine as substrate preincubated for 5 mins followed by substrate addition and measured after 5 mins by Ellman's method relative to control; details: time 10.0 min
[12] = Hepatotoxicity in human HepG2 cells at 10 uM incubated for 72 hrs by MTS assay; assay type: cell-based; details: hepg2, 72 h
[13] = molecular target: Sodium- and chloride-dependent GABA transporter 1 (Mus musculus) (UniProt P31648); test: Inhibition of NO711 binding to mouse GAT1 expressed in HEK cell membranes at 100 uM incubated for 40 mins in presence of NO711 by LC-ESI-MS/MS analysis relative to control; details: Membrane
Cytochrome P450 3A4 = Cytochrome P450 3A4 (Homo sapiens, UniProt P08684); test: Inhibition of CYP3A4 (unknown origin) at 10 uM; assay type: ADME
GABA transporter 4 = molecular target: T3, GABA transporter 4 (Mus musculus, UniProt P31650); test: Inhibition of mouse GAT4 expressed in HEK293 cell line assessed as reduction in [3H]GABA uptake incubated for 10 mins; assay type: cell-based
T3 sequence (P31650 whole entry): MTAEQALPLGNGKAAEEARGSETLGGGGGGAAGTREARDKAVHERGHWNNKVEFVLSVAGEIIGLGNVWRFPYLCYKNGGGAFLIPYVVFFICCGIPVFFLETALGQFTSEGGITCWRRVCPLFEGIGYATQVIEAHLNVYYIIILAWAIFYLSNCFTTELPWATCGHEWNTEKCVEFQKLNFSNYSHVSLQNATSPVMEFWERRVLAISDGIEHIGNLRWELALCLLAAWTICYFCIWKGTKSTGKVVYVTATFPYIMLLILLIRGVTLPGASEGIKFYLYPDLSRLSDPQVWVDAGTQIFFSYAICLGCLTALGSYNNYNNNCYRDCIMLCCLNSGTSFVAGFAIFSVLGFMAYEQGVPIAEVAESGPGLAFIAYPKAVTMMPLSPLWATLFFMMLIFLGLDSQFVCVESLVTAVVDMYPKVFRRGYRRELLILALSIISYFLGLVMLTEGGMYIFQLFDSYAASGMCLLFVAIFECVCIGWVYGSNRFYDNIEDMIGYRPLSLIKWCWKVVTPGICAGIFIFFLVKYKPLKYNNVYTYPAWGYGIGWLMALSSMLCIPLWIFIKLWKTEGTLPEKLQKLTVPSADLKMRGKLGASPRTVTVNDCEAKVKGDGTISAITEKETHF

[14] = Metabolic stability in human liver microsomes assessed as parent compound remaining after 120 mins in presence of NADPH regeneration system by UPLC/MS anlaysis; assay type: ADME, Microsome; details: read-out: Stabilty
Beta-secretase 1 = Beta-secretase 1 (Homo sapiens, UniProt P56817); details: dose 50.0 µM, time 60.0 min
[15] = molecular target: T4, GABA transporter 4 (Mus musculus) (UniProt P31650); test: Inhibition of mouse GAT3 expressed in HEK293 cell line assessed as reduction in [3H]GABA uptake at 100 uM incubated for 10 mins relative to control; assay type: cell-based
T4 sequence (whole entry): T3 sequence (P31650 whole entry)

Cytochrome P450 2D6 = Cytochrome P450 2D6 (Homo sapiens, UniProt P10635); test: Inhibition of CYP2D6 (unknown origin) at 10 uM; assay type: ADME
[16] = molecular target: Amyloid-beta precursor protein (Homo sapiens) (UniProt P05067); test: Inhibition of HFIP-pretreated amyloid beta (1 to 42) (unknown origin) aggregation at 10 uM after 36 to 48 hrs by thioflavin-T fluorescence assay relative to control; details: time 36-48 hrs
Chain of Amyloid-beta precursor protein (Homo sapiens) (P05067 whole entry): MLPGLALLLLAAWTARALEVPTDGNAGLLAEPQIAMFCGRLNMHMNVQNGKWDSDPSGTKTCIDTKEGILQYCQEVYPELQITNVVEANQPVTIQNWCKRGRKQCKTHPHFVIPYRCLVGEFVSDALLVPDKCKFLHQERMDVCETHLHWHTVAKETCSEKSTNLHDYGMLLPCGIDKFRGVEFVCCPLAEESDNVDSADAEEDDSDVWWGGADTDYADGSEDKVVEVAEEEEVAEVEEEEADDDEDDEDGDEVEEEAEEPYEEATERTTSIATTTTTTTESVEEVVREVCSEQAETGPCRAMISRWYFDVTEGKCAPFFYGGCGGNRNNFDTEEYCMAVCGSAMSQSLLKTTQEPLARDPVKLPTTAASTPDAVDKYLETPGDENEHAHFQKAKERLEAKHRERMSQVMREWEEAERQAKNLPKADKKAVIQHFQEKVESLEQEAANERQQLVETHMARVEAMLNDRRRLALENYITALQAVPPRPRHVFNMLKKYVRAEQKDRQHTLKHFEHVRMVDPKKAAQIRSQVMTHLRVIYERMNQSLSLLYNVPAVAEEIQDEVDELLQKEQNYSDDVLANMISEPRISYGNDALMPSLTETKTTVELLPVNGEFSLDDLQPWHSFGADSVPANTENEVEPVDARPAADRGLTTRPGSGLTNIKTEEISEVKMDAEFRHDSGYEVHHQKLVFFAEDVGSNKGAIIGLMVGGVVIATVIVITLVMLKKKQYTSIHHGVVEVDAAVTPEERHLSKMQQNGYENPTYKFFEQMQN

Chain of Beta-secretase 1 (P56817 whole entry): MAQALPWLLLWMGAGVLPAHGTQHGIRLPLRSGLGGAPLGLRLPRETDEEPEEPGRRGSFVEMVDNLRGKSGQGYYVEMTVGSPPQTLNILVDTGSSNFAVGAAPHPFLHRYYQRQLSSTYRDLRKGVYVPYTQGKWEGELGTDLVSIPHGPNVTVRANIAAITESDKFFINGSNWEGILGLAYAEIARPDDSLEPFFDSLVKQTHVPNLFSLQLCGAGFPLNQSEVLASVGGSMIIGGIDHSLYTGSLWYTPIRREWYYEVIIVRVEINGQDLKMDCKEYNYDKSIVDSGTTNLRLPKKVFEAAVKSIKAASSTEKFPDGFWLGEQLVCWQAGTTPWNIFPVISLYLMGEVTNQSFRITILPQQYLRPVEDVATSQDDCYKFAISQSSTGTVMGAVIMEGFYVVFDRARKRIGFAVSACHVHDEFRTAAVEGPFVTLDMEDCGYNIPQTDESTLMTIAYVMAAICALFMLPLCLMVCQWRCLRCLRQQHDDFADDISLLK
Chain of Cytochrome P450 2D6 (P10635 whole entry): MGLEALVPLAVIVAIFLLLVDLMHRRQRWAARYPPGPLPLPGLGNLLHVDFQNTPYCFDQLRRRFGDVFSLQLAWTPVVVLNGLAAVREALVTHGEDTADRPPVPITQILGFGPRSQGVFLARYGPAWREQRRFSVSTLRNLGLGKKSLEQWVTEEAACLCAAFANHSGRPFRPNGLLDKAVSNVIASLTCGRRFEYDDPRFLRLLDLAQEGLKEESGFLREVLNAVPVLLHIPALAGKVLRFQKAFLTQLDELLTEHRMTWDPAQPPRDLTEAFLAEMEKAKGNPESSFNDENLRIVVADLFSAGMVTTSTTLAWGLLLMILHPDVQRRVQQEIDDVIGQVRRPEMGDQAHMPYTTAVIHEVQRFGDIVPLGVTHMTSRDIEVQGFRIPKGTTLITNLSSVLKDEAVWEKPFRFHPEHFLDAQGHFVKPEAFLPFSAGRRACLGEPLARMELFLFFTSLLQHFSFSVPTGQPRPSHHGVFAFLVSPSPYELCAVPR
Chain of Cytochrome P450 3A4 (P08684 whole entry): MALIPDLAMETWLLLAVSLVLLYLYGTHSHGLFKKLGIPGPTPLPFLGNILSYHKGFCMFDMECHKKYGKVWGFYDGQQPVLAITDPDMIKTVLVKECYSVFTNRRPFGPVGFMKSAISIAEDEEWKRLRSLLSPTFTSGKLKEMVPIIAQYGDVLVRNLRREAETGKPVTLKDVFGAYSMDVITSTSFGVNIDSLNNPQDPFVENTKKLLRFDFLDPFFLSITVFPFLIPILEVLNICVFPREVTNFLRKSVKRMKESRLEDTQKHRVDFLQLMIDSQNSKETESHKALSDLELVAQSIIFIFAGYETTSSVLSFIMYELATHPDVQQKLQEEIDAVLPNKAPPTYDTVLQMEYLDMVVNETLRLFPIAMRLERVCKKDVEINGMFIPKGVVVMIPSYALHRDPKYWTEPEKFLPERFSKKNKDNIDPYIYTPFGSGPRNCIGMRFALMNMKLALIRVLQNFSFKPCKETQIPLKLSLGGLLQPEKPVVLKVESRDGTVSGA
Chain of Cholinesterase (Homo sapiens, UniProt P06276) (P06276 whole entry): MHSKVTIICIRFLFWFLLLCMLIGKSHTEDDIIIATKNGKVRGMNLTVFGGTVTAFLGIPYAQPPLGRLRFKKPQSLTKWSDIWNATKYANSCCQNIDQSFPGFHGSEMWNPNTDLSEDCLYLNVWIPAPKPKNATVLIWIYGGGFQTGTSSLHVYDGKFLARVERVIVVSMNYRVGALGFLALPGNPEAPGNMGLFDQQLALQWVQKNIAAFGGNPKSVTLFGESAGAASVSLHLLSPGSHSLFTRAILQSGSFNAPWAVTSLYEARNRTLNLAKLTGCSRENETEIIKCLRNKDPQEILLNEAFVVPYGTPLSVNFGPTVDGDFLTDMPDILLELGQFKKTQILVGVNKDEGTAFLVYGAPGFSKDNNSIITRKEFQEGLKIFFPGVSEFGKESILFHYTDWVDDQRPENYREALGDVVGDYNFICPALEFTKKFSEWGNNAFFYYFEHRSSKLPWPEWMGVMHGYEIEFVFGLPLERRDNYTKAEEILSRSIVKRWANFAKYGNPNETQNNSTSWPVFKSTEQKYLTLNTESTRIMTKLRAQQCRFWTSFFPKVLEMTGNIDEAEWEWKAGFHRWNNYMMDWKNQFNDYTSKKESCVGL
Chain of Acetylcholinesterase (Electrophorus electricus) (O42275 24-633 limits assumed): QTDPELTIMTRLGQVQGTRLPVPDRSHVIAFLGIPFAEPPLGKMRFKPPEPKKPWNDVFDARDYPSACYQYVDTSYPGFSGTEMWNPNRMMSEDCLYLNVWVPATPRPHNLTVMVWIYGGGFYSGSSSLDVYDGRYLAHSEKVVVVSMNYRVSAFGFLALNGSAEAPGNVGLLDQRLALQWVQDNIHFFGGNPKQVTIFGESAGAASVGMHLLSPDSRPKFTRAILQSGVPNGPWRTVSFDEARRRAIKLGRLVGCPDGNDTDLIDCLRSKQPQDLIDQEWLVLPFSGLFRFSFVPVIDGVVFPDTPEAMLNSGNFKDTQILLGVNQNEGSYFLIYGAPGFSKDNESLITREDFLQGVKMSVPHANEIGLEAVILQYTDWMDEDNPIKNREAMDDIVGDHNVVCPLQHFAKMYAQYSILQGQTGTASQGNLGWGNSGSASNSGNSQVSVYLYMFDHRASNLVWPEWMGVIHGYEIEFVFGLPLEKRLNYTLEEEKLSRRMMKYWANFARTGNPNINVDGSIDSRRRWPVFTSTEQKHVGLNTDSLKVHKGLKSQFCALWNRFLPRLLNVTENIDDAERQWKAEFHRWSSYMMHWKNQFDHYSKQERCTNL

Row | Structure (SMILES) | pIC50 [1] | pIC50 [2] | Activity [3] | pIC50 [4] | pIC50 (Cholinesterase [5]) | pIC50 (Cholinesterase [6]) | Activity [7] | Activity [8] | inhibition [9] | Activity [10] | inhibition [11] [%] | Activity [12] | inhibition [13] [%] | inhibition (INH) (Cytochrome P450 3A4) | pIC50 (GABA transporter 4) | remaining at 2 h [14] [%] | inhibition (Beta-secretase 1) [%] | inhibition [15] [%] | inhibition (INH) (Cytochrome P450 2D6) | inhibition [16] [%]
1 | COc1ccc(C(/C=C/CN2CCC[C@H](C(=O)O)C2)(c2ccc(OC)cc2)c2ccc(OC)cc2)cc1 | 5.80 | 4.33 |  |  |  |  |  |  |  |  |  |  |  |  |  |  |  |  |  | 
2 | CC(C)(C)CNC[C@@H](O)[C@H](Cc1ccccc1)NC(=O)C(c1ccccc1)c1ccccc1 |  |  | Toxic | 4.60 | 7.00 | 6.35 | Non-Toxic | Toxic | Active | Non-Toxic | < 10 | Non-Toxic | 71 | Active | 4.51 | 79.2 | 40 | 54 | Active | 20.5
3 | COc1ccc(C(OCCN2CCC[C@H](C(=O)O)C2)(c2ccc(OC)cc2)c2ccc(OC)cc2C)cc1 | 5.50 |  |  |  |  |  |  |  |  |  |  |  |  |  |  |  |  |  |  | 
